Results published in patent publication US12006294B2, “Therapeutic compounds” (REGENTS OF THE UNIVERSITY OF MINNESOTA, priority 2017, dated 2024).
Structures can show the parent of a compound that is named as a salt. Where two headings read alike, the source gives them in different places.

Tested on: Hela Cells
Test: Cellular ER stress model (tunicamycin, WST-8 cell viability)
[1] = Homo sapiens, HeLa, 48 h, read-out: % Cell Survival Cmpd(2.5 μM) + Tuni, Hela cells, compound 2.5 μM + tunicamycin, WST-8 viability 48 hours after tunicamycin treatment
[2] = Homo sapiens, HeLa, 48 h, read-out: Compounds ERS (vs Tn), ERS activity vs Tuni = % cell survival (compound)/% cell survival (tunicamycin), compound 2.5 μM
[3] = Homo sapiens, HeLa, 48 h, read-out: % Cell Survival Cmpd(2.5 μM) + Tuni
[4] = Homo sapiens, HeLa, 48 h, read-out: Compounds ERS (vs Tn)

For `N=C(N)N/N=C/c1ccccc1I` [JM3-183-2, (E)-2-(2-iodobenzylidene)hydrazine-1-carboximidamide acetate], the viability at 2.5 µM [1] was 24.2% and the viability at 2.5 µM [2] was 104%.

With `N=C(N)N/N=C/c1c(O)cccc1Cl` [BC2-59-2] the viability at 2.5 µM [3] was 39% and the viability at 2.5 µM [4] was 94%.

With `Cc1cccc(Cl)c1/C=N/NC1=NCCCN1` [JM2-265-2, (E)-2-(2-(2-chloro-6-methylbenzylidene)hydrazinyl)-1,4,5,6-tetrahydropyrimidine hydrochloride] the viability at 2.5 µM [1] was 47.2% and the viability at 2.5 µM [2] was 179%.

In the case of `Clc1ccc(/C=N/NC2=NCCN2)cc1Cl` [JM2-91-2, (E)-2-(2-(3,4-dichlorobenzylidene)hydrazinyl)-4,5-dihydro-1H-imidazole hydrochloride], the viability at 2.5 µM [1] is reported as 54.5% and the viability at 2.5 µM [2] is reported as 124%.

Compound `N=C(N)NC(=O)Cc1c(Cl)cccc1Cl` [JM2-287-2, N-carbamimidoyl-2-(2,6-dichlorophenyl)acetamide hydrochloride] has a viability at 2.5 µM [1] of 33% and a viability at 2.5 µM [2] of 111%.

`N=C(N)N/N=C/Cc1c(Cl)cccc1Cl` [JM3-239-2, (E)-2-(2-(2,6-dichlorophenyl)ethylidene)hydrazine-1-carboximidamide acetate] was tested, and the viability at 2.5 µM [1] was 28.1% and the viability at 2.5 µM [2] was 119%.

For `Cc1cc(=O)nc(N/N=C/c2cccc(Cl)c2Cl)[nH]1` [JM3-199-2, (E)-2-(2-(2,3-dichlorobenzylidene)hydrazinyl)-6-methylpyrimidin-4(1H)-one], the viability at 2.5 µM [1] was 22.9% and the viability at 2.5 µM [2] was 120%.

For `Nc1ccnn1-c1c(Cl)cccc1Cl` [JM1-217-2, 1-(2,6-dichlorophenyl)-1H-pyrazol-5-amine], the viability at 2.5 µM [1] was 40.6% and the viability at 2.5 µM [2] was 97%.

`Fc1cccc(F)c1/C=N/NC1=NCCN1` [JM2-103-2, (E)-2-(2-(2,6-difluorobenzylidene)hydrazinyl)-4,5-dihydro-1H-imidazole hydrochloride] gave a viability at 2.5 µM [1] of 48.7% and a viability at 2.5 µM [2] of 105%.

Work on `Cc1[nH]c(N/N=C/c2ccccc2Cl)nc(=O)c1C` [JM3-213-2, (E)-2-(2-(2-chlorobenzylidene)hydrazinyl)-5,6-dimethylpyrimidin-4(1H)-one] yielded a viability at 2.5 µM [1] of 22.8% and a viability at 2.5 µM [2] of 119%.

In the case of `N=C(N)N/N=C/c1c(Br)cccc1[N+](=O)[O-]` [JM1-175-2, (E)-2-(2-bromo-6-nitrobenzylidene)hydrazine-1-carboximidamide acetate], the viability at 2.5 µM [1] is reported as 44.9% and the viability at 2.5 µM [2] is reported as 65%.

`CCc1cccc(Cl)c1/C=N/NC(=N)N` [JM3-81-2, (E)-2-(2-chloro-6-ethylbenzylidene)hydrazine-1-carboximidamide acetate] was tested, and the viability at 2.5 µM [1] was 29.9% and the viability at 2.5 µM [2] was 130%.

Compound `N=C(N)N/N=C/c1ccccc1[N+](=O)[O-]` [JM3-13-2, (E)-2-(2-nitrobenzylidene)hydrazine-1-carboximidamide acetate] has a viability at 2.5 µM [1] of 27.4% and a viability at 2.5 µM [2] of 104%.

`N=C(N)N/N=C/c1cccs1` [JM2-279-2, (E)-2-(thiophen-2-ylmethylene)hydrazine-1-carboximidamide] gave a viability at 2.5 µM [1] of 32.1% and a viability at 2.5 µM [2] of 122%.

`Cc1[nH]c(N/N=C/c2c(F)cccc2Cl)nc(=O)c1C` [JM3-207-2, (E)-2-(2-(2-chloro-6-fluorobenzylidene)hydrazinyl)-5,6-dimethylpyrimidin-4(1H)-one] was tested, and the viability at 2.5 µM [1] was 23.1% and the viability at 2.5 µM [2] was 120%.

For `Cc1cccc(C)c1/C=N/NC(N)=S` [JM1-121-2, (E)-2-(2,6-dimethylbenzylidene)hydrazine-1-carbothioamide], the viability at 2.5 µM [1] was 23.4% and the viability at 2.5 µM [2] was 34%.

Compound `NC(=S)N/N=C/c1c(F)cccc1Cl` [JM1-113-2, (E)-2-(2-chloro-6-fluorobenzylidene)hydrazine-1-carbothioamide] has a viability at 2.5 µM [1] of 27.6% and a viability at 2.5 µM [2] of 40%.

Compound `CCCCNC(=N)N/N=C/c1c(Cl)cccc1Cl` [JM3-161-2, (E)-N-butyl-2-(2,6-dichlorobenzylidene)hydrazine-1-carboximidamide hydroiodide] has a viability at 2.5 µM [1] of 14.7% and a viability at 2.5 µM [2] of 63%.

For `O=C(/C=C/c1ccccc1)NC(NC(=S)Nc1cccc2cccnc12)C(Cl)(Cl)Cl` (stereo not drawn) [Salubrinal, reference compound], the “% Cell Survival Cmpd + Tuni” value (Hela cells, Salubrinal 25 μM + tunicamycin, WST-8 48 hours) was 38.46%, the viability at 2.5 µM [1] was 23.8% and the viability at 25 µM (Homo sapiens, HeLa, 48 h, read-out: Compounds ERS (vs Tn), % cell survival (compound)/% cell survival (tunicamycin), Salubrinal 25 μM) was 116%. The viability at 2.5 µM [2] was 103%.

`NC(=O)N/N=C/c1ccccc1F` [JM3-221-2, (E)-2-(2-fluorobenzylidene)hydrazine-1-carboxamide hydrochloride] was tested, and the viability at 2.5 µM [1] was 28.9% and the viability at 2.5 µM [2] was 122%.

In the case of `N=C(N)N/N=C/c1c(F)cccc1C(F)(F)F` [JM1-223-2, (E)-2-(2-fluoro-6-(trifluoromethyl)benzylidene)hydrazine-1-carboximidamide acetate], the viability at 2.5 µM [1] is reported as 37.5% and the viability at 2.5 µM [2] is reported as 54%.

For `Cc1cc(=O)nc(N/N=C/c2c(Cl)ccc(Cl)c2Cl)[nH]1` [JM3-201-2, (E)-6-methyl-2-(2-(2,3,6-trichlorobenzylidene)hydrazinyl)pyrimidin-4(1H)-one], the viability at 2.5 µM [1] was 20% and the viability at 2.5 µM [2] was 104%.

For `N=C(N)Nc1ccnn1-c1c(Cl)cccc1Cl` [JM1-285-2, 1-(1-(2,6-dichlorophenyl)-1H-pyrazol-5-yl)guanidine], the viability at 2.5 µM [1] was 41.9% and the viability at 2.5 µM [2] was 101%.

With `Clc1cccc(CC2=NCCN2)c1Cl` [JM3-179-2, 2-(2,3-dichlorobenzyl)-4,5-dihydro-1H-imidazole] the viability at 2.5 µM [1] was 20.4% and the viability at 2.5 µM [2] was 88%.

Work on `O=[N+]([O-])c1cccc(Cl)c1/C=N/NC1=NCCN1` [JM2-89-2, (E)-2-(2-(2-chloro-6-nitrobenzylidene)hydrazinyl)-4,5-dihydro-1H-imidazole hydrochloride] yielded a viability at 2.5 µM [1] of 56.9% and a viability at 2.5 µM [2] of 130%.

Work on `Clc1cccc(Cl)c1NC1=NCCN1` [JM2-97-2, N-(2,6-dichlorophenyl)-4,5-dihydro-1H-imidazol-2-amine hydrochloride] yielded a viability at 2.5 µM [3] of 63.1% and a viability at 2.5 µM [4] of 147%.

`CC(C1=NCCN1)c1c(Cl)cccc1Cl` (stereo not drawn) [JM2-101-2, 2-(1-(2,6-dichlorophenyl)ethyl)-4,5-dihydro-1H-imidazole] showed a viability at 2.5 µM [1] of 49.5% and a viability at 2.5 µM [2] of 107%.

In the case of `O=[N+]([O-])c1cccc(Br)c1/C=N/NC1=NCCN1` [JM2-109-2, (E)-2-(2-(2-bromo-6-nitrobenzylidene)hydrazinyl)-4,5-dihydro-1H-imidazole hydrochloride], the viability at 2.5 µM [1] is reported as 50.2% and the viability at 2.5 µM [2] is reported as 108%.

For `Clc1cccc(Cl)c1/C=N/NC1=NCCN1` [JM2-83-2, (E)-2-(2-(2,6-dichlorobenzylidene)hydrazinyl)-4,5-dihydro-1H-imidazole hydrochloride], the viability at 2.5 µM [1] was 53.8% and the viability at 2.5 µM [2] was 125%.

For `CCc1cccc(CC)c1/C=N/NC(=N)N` [JM2-233-2], the viability at 2.5 µM [1] was 31.8% and the viability at 2.5 µM [2] was 121%.

Compound `Clc1cccc(/C=N/NC2=NCCCN2)c1Cl` [JM3-153-2, (E)-2-(2-(2,3-dichlorobenzylidene)hydrazinyl)-1,4,5,6-tetrahydropyrimidine hydrochloride] has a viability at 2.5 µM [1] of 36% and a viability at 2.5 µM [2] of 155%.

Work on `Clc1cccc(/C=N/NC2=NCCN2)c1Cl` [JM3-149-2, (E)-2-(2-(2,3-dichlorobenzylidene)hydrazinyl)-4,5-dihydro-1H-imidazole hydrochloride] yielded a viability at 2.5 µM [1] of 29.1% and a viability at 2.5 µM [2] of 125%.

With `Clc1cccc(Cl)c1/C=N/NC1=NCCCN1` [JM2-255-2, (E)-2-(2-(2,6-dichlorobenzylidene)hydrazinyl)-1,4,5,6-tetrahydropyrimidine hydrochloride] the viability at 2.5 µM [1] was 63.8% and the viability at 2.5 µM [2] was 201%.

For `Fc1cccc(Cl)c1/C=N/NC1=NCCN1` [JM2-95-2, (E)-2-(2-(2-chloro-6-fluorobenzylidene)hydrazinyl)-4,5-dihydro-1H-imidazole hydrochloride], the viability at 2.5 µM [1] was 53% and the viability at 2.5 µM [2] was 121%.

`Cc1cc(=O)nc(N/N=C/c2c(Cl)cccc2Cl)[nH]1` [JM3-197-2, (E)-2-(2-(2,6-dichlorobenzylidene)hydrazinyl)-6-methylpyrimidin-4(1H)-one] gave a viability at 2.5 µM [1] of 20.4% and a viability at 2.5 µM [2] of 106%.

For `N=C(N)NNCc1c(Cl)cccc1Cl` [JM2-185-2], the viability at 2.5 µM [1] was 31.7% and the viability at 2.5 µM [2] was 100%.

Compound `N=C(N)N/N=C/c1cc(C(F)(F)F)ccc1Cl` [JM1-221-2, (E)-2-(2-chloro-5-(trifluoromethyl)benzylidene)hydrazine-1-carboximidamide acetate] has a viability at 2.5 µM [1] of 38.6% and a viability at 2.5 µM [2] of 56%.

`Cc1[nH]c(N/N=C/c2c(Cl)ccc(Cl)c2Cl)nc(=O)c1C` [JM3-205-2, (E)-5,6-dimethyl-2-(2-(2,3,6-trichlorobenzylidene)hydrazinyl)pyrimidin-4(1H)-one] showed a viability at 2.5 µM [1] of 20.7% and a viability at 2.5 µM [2] of 108%.

`CN(/N=C/c1c(Cl)cccc1Cl)C(=N)N` [JM3-257-2, (E)-2-(2,6-dichlorobenzylidene)-1-methylhydrazine-1-carboximidamide hydroiodide] was tested, and the viability at 2.5 µM [1] was 31.2% and the viability at 2.5 µM [2] was 132%.

Compound `N=C(N)NC(=O)Cc1c(Cl)cccc1[N+](=O)[O-]` [JM2-275-2, N-carbamimidoyl-2-(2-chloro-6-nitrophenyl)acetamide hydrochloride] has a viability at 2.5 µM [1] of 29.8% and a viability at 2.5 µM [2] of 101%.

`N=C(N)N/N=C/c1c(Cl)cc(OCc2ccccc2)cc1Cl` [JM2-195-2, (E)-2-(4-(benzyloxy)-2,6-dichlorobenzylidene)hydrazine-1-carboximidamide acetate] gave a viability at 2.5 µM [1] of 24.1% and a viability at 2.5 µM [2] of 76%.
